Results as given in patent US20020160055A1, “Methods for treating human immunodeficiency virus infections with gallium compositions” (priority 2000, published 2002).

What was measured:
HIV = conditions: results of U.S. Pat. No. 5,525,598; cited from earlier work
HIV-1 = experiment: Inhibition of HIV replication in PHA/IL2 stimulated PBMC's (p24 antigen in culture supernatants); type: cell-based
Description: FIG. 1—Gallium Nitrate and Hydroxyurea Inhibition of HIV-1 Replication. PHA/IL-2 stimulated human PBMC's (1×10^6), and MT-2 cells (1×10^6) were grown and maintained in RPMI 1640 media containing 20% fetal calf sera, glutamine and antibiotics (Thelander & Reichard, 1979). Experiments were carried out in duplicate, and experiments repeated a minimum of three times. Gallium nitrate (Ga) was obtained from the National Cancer Institute. Hydroxyurea (HU) was obtained from Sigma Chemicals (St. Louis, Mo.). Ga and HU were added to PBMC's 24 hrs prior to infection, and cells were washed 16 hrs post-infection. Culture supernatants were obtained 4 and 7 days post-infection for p24 antigen measurement.
(§1) Various concentrations of Ga or HU were added to PHA/IL2 stimulated PBMC's 24 hours prior to infection with HIV. Following infection, cells were washed and culture supernatants were obtained 4 and 7 days post-infection.
HIV (Catalog# 1073, NIH AIDS Reference Program) was used in these studies. […] Viral replication was measured by determining the concentration of p24 antigen in culture supernatants (Organon-Teknika), and by visually observing a reduction in syncytia formation (Cook et al., 1997). In addition, a quantitative measurement of syncytia induction—inhibition was employed (described below). […]

PBMC = experiment: Effects on PBMC proliferation and viability (Trypan blue staining and counting); type: cell-based, human; conditions: 48 hrs
Description: FIG. 4—Effects of Gallium Nitrate on PBMC Proliferation and Viability. Experiments were carried out in duplicate, and experiments repeated a minimum of three times. Gallium nitrate (Ga) was obtained from the National Cancer Institute. Cells were incubated in Ga at concentrations noted, and were stained at 48 hrs with Trypan blue and counted.
as §1

Compound: Cc1cn([C@H]2C[C@H](N=[N+]=[N-])[C@@H](CO)O2)c(=O)[nH]c1=O [3′-azido-2,3′-deoxythymidine]
- therapeutic index (HIV): 3680

Compound: O=[N+]([O-])[O-].O=[N+]([O-])[O-].O=[N+]([O-])[O-].[Ga+3] [Ga, Gallium nitrate]
- fold lower IC50 of Ga than HU (HIV-1; present culture system): approximately 15 fold
- effect on cellular proliferation or viability at concentrations inhibiting HIV replication (PBMC): did not inhibit cellular proliferation or viability

Compound: NC(=O)NO [HU, Hydroxyurea]
- IC50 (HIV-1; Human immunodeficiency virus 1, PHA/IL2 stimulated PBMC's, added 24 hours prior to infection, supernatants 4 and 7 days post-infection): 120 µM
